The subject of one assay is B cells. Description: In vivo homing of B cells activated with anti-IgM antibody in the presence or absence of retinoic acid. On the set-up: species or system mouse. As to the method:
FIG. 16 illustrates the effect of retinoic acid (RA) in the homing potential of B cells activated with an anti IgM antibody. Mouse spleen B cells are activated with an anti-IgM antibody, either with or without RA, and in the presence of non-intestinal dendritic cells (D1-DC) to improve the effector B cell viability. After 4 days in culture, naïve, B220^+ and B220^Neg (plasmablasts) effector B cells are assayed for (A) α4β7 (MFI: mean fluorescence intensity). (B) CCR9, and (C-D) migration of B cells activated in the presence or the absence of RA. […] In addition, most of the cells localizing in the small bowel mucosa are B220^Low/Neg (plasmablasts). (D) Bar graphs showing the mean±SE of 2 independent experiments. The homing indices (HI) indicate how much more (or less) B cells activated in the presence of RA migrate with respect to those activated without RA in a given tissue (HI=1 means no difference). […]
Dendritic cells treated with retinoic acid (RA) as described in FIGS. 3-6, or gut derived DC (e.g. mobilized from Peyer's patches or mesenteric lymph nodes), or RA itself (see FIG. 15) can be used to activate naive or effector/memory T and/or B cells. […] After 4-5 days, the resulting effector T and/or B cells are analyzed for their expression of gut or skin homing molecules and migratory behavior (see FIG. 16).

The test system of the next assay is T cells. Description: In vivo migration of T cells activated with D1-DC pretreated with RA. Particulars: T cells activated with D1-DC pretreated with RA for 3 days, injected into mice; average of two independent experiments (FIG. 19B).

Data on one compound can be found in patent US20060263340A1, “Treating gastrointestinal diseases with modulators of retinoic acid” (priority 2005, published 2006).

For the compound `CC1=C(/C=C/C(C)=C/C=C/C(C)=C/C(=O)O)C(C)(C)CCC1` [RA, retinoic acid], the “migration of B cells into the small bowel lamina propria as compared to those activated without RA (homing index)” value in the assay on B cells (average of 2 independent experiments (FIG. 16D)) is listed as “more than 10 times”. In addition, in the assay on B cells (mouse spleen B cells activated with anti-IgM with RA, in presence of D1-DC, representative homing experiment (FIG. 16C)), the “localization of B cells in the small bowel lamina propria as compared to B cells activated without RA” value was determined as 24 times. Moreover, in the assay with T cells, the “migration of T cells to the intestinal mucosa as compared to those activated with control D1-DC” value amounted to 200 times.
